Experimental data taken from patent US20250154163A1, “Pyrimidinone-Containing 17-Beta-Hydroxysteroid Dehydrogenase Type 13 Inhibitors” (ENANTA PHARMACEUTICALS, INC., priority 2023, published 2025).

What was measured:
[1] = target: T1, Recombinant human 17β-HSD13 (Homo sapiens, UniProt Q7Z5P4); experiment: 17β-HSD13 rapid-fire mass spectrometry assay (RF/MS assay); type: biochemical; conditions: inhibition of 17β-HSD13, RF/MS assay; HSD17B13 80 nM, LTB4 10 μM, NAD+ 0.5 mM, RT 3 h
T1 construct: host or cells: Sf9 insect cells
T1 sequence (Q7Z5P4 20-300): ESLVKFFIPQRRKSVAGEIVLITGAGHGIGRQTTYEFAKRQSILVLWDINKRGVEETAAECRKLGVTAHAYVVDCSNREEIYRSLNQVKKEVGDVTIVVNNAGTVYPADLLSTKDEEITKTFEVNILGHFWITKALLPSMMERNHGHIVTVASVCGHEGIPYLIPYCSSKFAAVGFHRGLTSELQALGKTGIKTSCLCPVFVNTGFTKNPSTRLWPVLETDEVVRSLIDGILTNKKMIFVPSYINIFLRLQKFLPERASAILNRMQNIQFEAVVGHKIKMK
How it was run: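 Purified recombinant human 17β-HSD13 (sf9-expressed, 80 nM) incubated with compound (0–100 μM), 10 μM LTB4 and 0.5 mM NAD+ in 20 mM Tris pH 7.5, 0.005% BSA, 0.01% Tween-20, 3 h at RT. 12-oxo-LTB4 formation quantified by RapidFire MS/MS; percent conversion normalized to controls, IC50 from variable-slope fit, duplicates.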

[2] = tested on: human precision cut lung slices from a normal donor treated with fibrotic cocktail; experiment: Human precision cut lung slice (PCLS) culture, normal donor treated with fibrotic cocktail; type: cell-based; conditions: normal donor PCLS treated 8 days with pro-fibrotic cocktail (FC); FIG. 2a, FIG. 3
Method: Human PCLS were generated from lung explants of patients with pulmonary fibrosis (donor ID #221028) or normal donor (donor ID #220730). Cryopreserved hPCLSs were obtained from Institute for In Vitro Sciences (IIVS) and maintained with air-liquid interface culture approach under 37° C., 5% CO2 and 95% humidity. hPCLS were cultured in DMEM-F12 (Invitrogen, Cat No. 11330032) containing 0.2% primocin (Invivogen, Cat No. ant-pm-1) and 1% insulin-transferrin-selenium (ITS-G; Invitrogen, Cat No. 41400045), after initial acclimation in acclimation media, including culture media supplemented with 1% antibiotic antimycotic solution (Invitrogen, Cat No. 15240062), 2 mM Hydrocortisone (Millipore Sigma,) and 5 mg/ml 2-phospho-L-abscorbic acid trisodium salt (Millipore Sigma, Cat No. 49752-10G) for 3 days. Slices of tissue were flatly grown in the tissue culture inserts with 0.4 μm pores of a 12-well plate (StemCell Technologies, Cat No. 1001027), supplemented with 100 μl culture media in the apical side containing PCLSs, and 900 μL culture media in the basal compartment. Media were changed every 48 hours. hPCLS were treated and randomly assigned in replicates of 6-8 per condition 7 days after recovery from cryopreservation. […] IPF donor PCLS were collected at day 8 for subsequent RNA isolation and gene expression quantification. […]

Row | IC50 [1] [µM] | SMILES | collagen (COL1A1) mRNA expression [2]
1 | < 0.1 | COc1ccc(-c2nc3sc4c(O)c(Cl)ccc4c3c(=O)n2Cc2cnco2)c(C2CC2)c1 [Example 26, 7-chloro-2-(2-cyclopropyl-4-methoxyphenyl)-8-hydroxy-3-(oxazol-5-ylmethyl)benzo[4,5]thieno[2,3-d]pyrimidin-4(3H)-one] | decreased
2 | < 0.1 | CS(=O)(=O)c1ccc(-c2nc3sc4c(O)c(Cl)ccc4c3c(=O)n2Cc2cnc(C(F)(F)F)nc2)c(C2CC2)c1 [Example 64, 7-chloro-2-(2-cyclopropyl-4-(methylsulfonyl)phenyl)-8-hydroxy-3-((2-(trifluoromethyl)pyrimidin-5-yl)methyl)benzo[4,5]thieno[2,3-d]pyrimidin-4(3H)-one] | decreased
